From patent US20210177796A1, “COMPOSITION FOR PREVENTING OR TREATING INFLAMMATORY DISEASES, CONTAINING MARINE FUNGUS PENICILLIUM SP. SF-5859-DERIVED CURVULARIN-TYPE METABOLITES” (KOREA INSITITUTE OF OCEAN SCIENCE AND TECHNOLOGY, priority 2017, published 2021)
Like-named read-outs stand apart in the source and are kept apart here.

Tests used:
Assay type in all cases: cell-based
[1] = test system: RAW264.7 macrophages; test: Cytotoxicity by MTT assay
Experimental: In the present example, the cytotoxicity of each of the compounds of Formula 1 to 4 was confirmed in RAW264.7 macrophages by MTT assay.
RAW264.7 macrophages were maintained at a density of 5×10^5 cells/mL in RPMI1640 medium supplemented with 10% heat-inactivated FBS, penicillin G (100 units/mL), streptomycin ([…]), and L-glutamine (2 mM), and were incubated at 37° C. in a humidified atmosphere containing 5% CO2. To determine cell viability, cells (1×10^5 cells/well in 96-well plates) were incubated with 3-(4,5-dimethylthiazol-2-yl)-2,5-diphenyltetrazolium bromide (MTT) at a final concentration of 0.5 mg/mL for 3 hours, and the formazan formed was dissolved in acidic 2-propanol. The optical density was measured at 540 nm with a microplate reader (BioRad, Hercules, Calif., USA). The optical density of the formazan formed in control (untreated) cells was considered to represent 100% viability.

[2] = test system: NO production in LPS-treated RAW 264.7 macrophages; test: Inhibition of NO (nitrite) production in LPS-treated RAW264.7 macrophages, Griess reaction; conditions: RAW 264.7 macrophages pre-treated 3 hours, then LPS (1 μg/mL) 24 hours
Experimental: As an indicator of NO production in RAW264.7 macrophages, production of nitrite, which is a stable end-product of NO oxidation, was evaluated. The concentration of nitrite in conditioned media was determined based on the Griess reaction.
(§1) In the present example, RAW264.7 macrophages were pre-treated for 3 hours in the medium containing non-toxic concentrations (Table 1) of each compound (Formula 1 to 4), and then LPS (1 μg/mL) was treated for 24 hours. According to the LPS stimulation of RAW264.7 macrophages, the production of NO and PGE2 was increased, and the effects of all compounds on the production levels of NO and PGE2 were evaluated by the Griess reaction and a PGE2 kit, respectively.

[3] = test system: PGE2 production in LPS-treated RAW 264.7 macrophages; test: Inhibition of PGE2 production in LPS-treated RAW264.7 macrophages, PGE2 ELISA kit; conditions: RAW 264.7 macrophages pre-treated 3 hours, then LPS (1 μg/mL) 24 hours
From the text: RPMI1640, fetal bovine serum (FBS), and other tissue culture reagents were purchased from Gibco BRL Co. (Grand Island, N.Y., USA). All other chemicals were obtained from Sigma-Aldrich Co. (St. Louis, Mo., USA). Primary antibodies (COX-2: sc-1745; iNOS: sc-650; IκB-α: sc-371; p-IκB-α: sc-8404; p50: sc-7178; p65: sc-8008, Santa Cruz Biotechnology, Dallas, Tex., USA, p-ERK: #9101; ERK: #9102; p-JNK: #9251; JNK: #9252S; p-p38: #9211; p38: 9212S, Cell Signaling Technology, Danvers, Mass., USA) and secondary antibodies (mouse: ap124p; goat: ap106p; rabbit: ap132p, Millipore, Billerica Mass., USA) were used. Enzyme-linked immunosorbent assay (ELISA) kits for PGE2 were purchased from R and D Systems, Inc. (Minneapolis, Minn., USA).
as §1

[4] = test system: IL-1β; test: IL-1β mRNA expression in LPS-induced cells, RT-qPCR; conditions: pre-treated 3 hours, LPS (1 μg/mL) 6 hours; FIG. 1(b)
Experimental: (§2) In addition, upon stimulation by LPS, macrophages can trigger the production of pro-inflammatory cytokines such as TNF-α and ILs. The overproduction of these cytokines contributes to the pathogenesis of inflammatory diseases. Thus, the inventors of the present invention further evaluated the effects of the compound of Formula 3 on the mRNA expression of pro-inflammatory cytokines in the LPS-induced cells. The cells were pre-treated with indicated concentration for 3 hours, followed by LPS stimulation (1 μg/mL) for 6 hours. The mRNA expression of pro-inflammatory cytokines was determined by RT-qPCR.

[5] = test system: COX-2; test: COX-2 protein expression in LPS-stimulated RAW264.7 macrophages; conditions: pre-treated 3 hours, LPS 24 hours; FIG. 1(a)
Experimental: (§3) Therefore, the inventors of the present invention further tested whether the inhibitory effects of the compound of Formula 3 against NO and PGE2 productions are correlated with the protein expression of pro-inflammatory enzymes (e.g., iNOS or COX-2, respectively), which are known to catalyze the production of NO and PGEs in LPS-stimulated cells. RAW264.7 macrophages were pre-treated with the indicated concentrations of the compound of Formula 3 for 3 hours, and then stimulated with LPS for 24 hours. The presence of the compound of Formula 3 led to the attenuation of the excessive protein expression of iNOS and COX-2 in a dose-dependent manner (see FIG. 1(a)).

[6] = test system: IκB-α; test: IκB-α phosphorylation and degradation in LPS-induced RAW264.7 macrophages; conditions: FIG. 2(b)
Experimental: (§4) In the present example, a NF-κB ELISA kit (Active Motif) was used to test the nuclear extracts and determine the degree of NF-κB binding. […] Furthermore, when the cells were treated with LPS alone, the phosphorylation level of IκB-α was increased, whereas the compound of Formula 3 attenuated this phosphorylation of IκB-α. In addition, the compound of Formula 3 blocked the degradation of IκB-α in a concentration-dependent manner (see FIG. 2(b)). In line with these, LPS-induced DNA binding activity of NF-κB was declined in the nuclear extracts of the cells co-treated with the compound of Formula 3 (see FIG. 2(c)).

[7] = test system: c-Jun N-terminal kinase (JNK); test: LPS-induced JNK phosphorylation in RAW264.7 macrophages; conditions: LPS 30 minutes; FIG. 3(b)
From the text: (§5) Mitogen-activated protein kinase (MAPK) pathways are known to be involved in the expression of pro-inflammatory cytokines in macrophages. Thus, the effect of the compound of Formula 3 on the LPS-induced phosphorylation of MAPK was examined.

[8] = test system: IL-6; test: IL-6 mRNA expression in LPS-induced cells, RT-qPCR; conditions: pre-treated 3 hours, LPS (1 μg/mL) 6 hours; FIG. 1(c)
Experimental: as §2

[9] = test system: NF-κB; test: DNA binding activity of NF-κB in nuclear extracts, NF-κB ELISA kit; conditions: FIG. 2(c)
Experimental: as §4

[10] = test system: p38; test: LPS-induced p38 phosphorylation in RAW264.7 macrophages; conditions: LPS 30 minutes; FIG. 3(a)
From the text: as §5

[11] = test system: extracellular signal-regulated kinase (ERK); test: LPS-induced ERK phosphorylation in RAW264.7 macrophages; conditions: LPS 30 minutes; FIG. 3(c)
From the text: as §5

[12] = test system: TNF-α; test: TNF-α mRNA expression in LPS-induced cells, RT-qPCR; conditions: pre-treated 3 hours, LPS (1 μg/mL) 6 hours; FIG. 1(d)
Experimental: as §2

[13] = test system: iNOS; test: iNOS protein expression in LPS-stimulated RAW264.7 macrophages; conditions: pre-treated 3 hours, LPS 24 hours; FIG. 1(a)
Experimental: as §3

[14] = test system: NF-κB (p50 and p65); test: NF-κB activation: nuclear translocation of p50 and p65 in LPS-induced RAW264.7 macrophages; conditions: FIG. 2(a)

Compound | Cytotoxicity (μM): the maximum concentration not affecting cell viability ([1]; RAW264.7 macrophages, MTT) | IC50 [2] | IC50 [3] | other results
C[C@H]1CCC[C@H](O)C(=O)c2c(O)cc(O)cc2CC(=O)O1 [Formula 2b, (11S,15S)-11-hydroxycurvularin] | 40 µM | 7.2 ± 1.6 µM | 14.1 ± 4 µM | 
CC(=O)Oc1cc(O)c2c(c1)CC(=O)O[C@@H](C)CCCCCC2=O [Formula 1d, 5-O-acetylcurvularin] |  | 46.9 ± 3.7 µM | 73.7 ± 17.1 µM | Cytotoxicity (μM): the maximum concentration not affecting cell viability [1]: >80 µM
5,7-Di-O-methylcurvularin [Formula 1c] |  | 60.6 ± 16.4 µM | 49.4 ± 14 µM | Cytotoxicity (μM): the maximum concentration not affecting cell viability [1]: >80 µM
CO[C@H]1CCC[C@H](C)OC(=O)Cc2cc(O)cc(O)c2C1=O [Formula 2d, (11S,15S)-11-methoxycurvularin] | 20 µM | 3.5 ± 0.5 µM | 6 ± 1.9 µM | 
C[C@H]1CCC[C@@H](O)CC(=O)c2c(O)cc(O)cc2CC(=O)O1 [Formula 2a, (11R,15S)-11-hydroxycurvularin] | 40 µM | 11.5 ± 2.7 µM | 15.6 ± 5.2 µM | 
5,7-Di-O-acetylcurvularin [Formula 1e] |  | 77.5 ± 9.3 µM | > 80 µM | Cytotoxicity (μM): the maximum concentration not affecting cell viability [1]: >80 µM
CC1CCCCCC(=O)c2c(O)cc(O)cc2CC(=O)O1 (stereo not drawn) [Formula 1a, curvularin] | 40 µM | 18.1 ± 5.2 µM | 18.7 ± 4.9 µM | 
C[C@H]1CCC/C=C\C(=O)c2c(O)cc(O)cc2CC(=O)O1 [Formula 4, (10Z,15S)-10,11-dehydrocurvularin] | 20 µM |  |  | IC50 ([2]; Mus musculus, RAW264.7): 4.4 ± 0.8 µM; IC50 ([3]; Mus musculus, RAW264.7): 6.2 ± 1.1 µM
CO[C@@H]1CCC[C@H](C)OC(=O)Cc2cc(O)cc(O)c2C(=O)C1 [Formula 2c, (11R,15S)-11-methoxycurvularin] | 20 µM | 2.6 ± 0.4 µM | 3 ± 1.3 µM | 
C[C@H]1CCC/C=C/C(=O)c2c(O)cc(O)cc2CC(=O)O1 [Formula 3, (10E,15S)-10,11-dehydrocurvularin] | 20 µM |  |  | mRNA expression of IL-1β [4]: significantly suppressed; Protein expression of COX-2 [5]: attenuation; Degradation of IκB-α [6]: blocked; Phosphorylation of IκB-α [6]: attenuated; IC50 ([2]; Mus musculus, RAW264.7): 1.9 ± 0.3 µM; Phosphorylation of JNK [7]: did not suppress; mRNA expression of IL-6 [8]: significantly suppressed; LPS-induced DNA binding activity of NF-κB [9]: declined; Phosphorylation of p38 [10]: did not suppress; Phosphorylation of ERK [11]: did not suppress; mRNA expression of TNF-α [12]: significantly suppressed; Protein expression of iNOS [13]: attenuation; IC50 ([3]; Mus musculus, RAW264.7): 2.7 ± 0.4 µM; Nuclear translocation of p50 and p65 [14]: dose-dependently suppressed
COc1cc(O)c2c(c1)CC(=O)O[C@@H](C)CCCCCC2=O [Formula 1b, 5-O-methylcurvularin] | >80 µM | > 80 µM | 40.2 ± 5.1 µM | 
